Measured values as given in PubChem BioAssay (NCI).
“And” between values parts separate entries of the source, which are not always exact repeats. Identical values can stand only once.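 Grown in 96-well plates, cells were treated for 48 hours with each compound at five concentrations. Insufficient inhibition: endpoint recorded as highest concentration tested. The concentration for 50% growth inhibition is given as GI50. TGI: concentration producing complete growth inhibition.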

Assays:
Assay in all cases: growth of human tumour cells (NCI), 48 h
EKVX NSCLC = test system: EKVX NSCLC
HT29 colon = test system: HT29 colon
K-562 leukemia = test system: K-562 leukemia
MOLT-4 leukemia = test system: MOLT-4 leukemia
NCI-H226 lung = test system: NCI-H226 lung
NCI-H522 lung = test system: NCI-H522 lung
OVCAR-4 ovarian = test system: OVCAR-4 ovarian
OVCAR-8 ovarian = test system: OVCAR-8 ovarian
SK-MEL-5 melanoma = test system: SK-MEL-5 melanoma
SW-620 colon = test system: SW-620 colon

Structure (SMILES) | TGI (EKVX NSCLC) | TGI (HT29 colon) | TGI (K-562 leukemia) | TGI (MOLT-4 leukemia) | TGI (NCI-H226 lung) | TGI (NCI-H522 lung) | TGI (OVCAR-4 ovarian) | TGI (OVCAR-8 ovarian) | TGI (SK-MEL-5 melanoma) | TGI (SW-620 colon) | GI50 (HT29 colon) | GI50 (K-562 leukemia) | GI50 (MOLT-4 leukemia) | GI50 (NCI-H226 lung) | GI50 (NCI-H522 lung) | GI50 (OVCAR-4 ovarian) | GI50 (OVCAR-8 ovarian) | GI50 (SK-MEL-5 melanoma) | GI50 (SW-620 colon) | GI50 (EKVX NSCLC)
COc1ccc(/C=C\c2cc(OC)c3c(c2)OCO3)c(O)c1O | 40.4 µM | 47.2 µM | 27 µM | 47.5 µM | 45.9 µM | 3.53 µM | 20.6 µM | 32.5 µM | 6.32 µM | 26.1 µM | – | – | – | – | – | – | – | – | – | –
CN(CC(=O)O)S(=O)(=O)c1ccc2ccccc2c1 | > 100 µM | > 100 µM | > 100 µM | > 100 µM | – | > 100 µM | > 100 µM | > 100 µM | > 100 µM | > 100 µM | – | – | – | – | – | – | – | – | – | –
Oc1ccc(Cl)cc1-c1cc(-c2ccccc2Cl)[nH]n1 | – | > 100 µM | > 100 µM | > 100 µM | > 100 µM | > 100 µM | > 100 µM | > 100 µM | > 100 µM | > 100 µM | 15.2 µM | 4.59 µM | 5380 nM | 13.8 µM | 3.26 µM | 0.28 µM | 7.13 µM | 5.66 µM | 77.2 µM | –
O=C(O)CCSC(=O)Nc1cccc(F)c1 | > 100 µM | > 100 µM | > 100 µM | > 100 µM | > 100 µM | – | – | > 100 µM | – | > 100 µM | – | – | – | – | – | – | – | – | – | –
COC(=O)Nc1nc2ccc(S(=O)c3ccccc3)cc2[nH]1 (stereo unspecified) | > 100 µM | 54.1 µM | – | > 100 µM | > 100 µM | 40.2 µM | > 100 µM | > 100 µM | > 100 µM | > 100 µM | 3.46 µM | – | 5860 nM | 4.06 µM | 2.79 µM | 7.73 µM | 14.8 µM | 2.83 µM | 3.63 µM | 35 µM
CC1=C(C(=O)Nc2ccc(F)c(Cl)c2)C(c2ccc(Cl)cc2)NC(=O)N1 (stereo unspecified) | 49.9 µM | 27.8 µM | 21.3 µM | – | 38.6 µM | 34.9 µM | – | 36.8 µM | 30.4 µM | 66 µM | 14.3 µM | 0.0173 µM | – | 15.5 µM | 17.8 µM | – | 18.4 µM | 15.5 µM | 24.8 µM | 18.5 µM
C[C@@H](CS(C)(=O)=O)Nc1ncc2cc(Oc3ccc(F)cc3F)c(=O)n(C)c2n1 | – | > 25 µM | > 25 µM | > 25 µM | > 25 µM | > 25 µM | > 25 µM | > 25 µM | > 25 µM | > 25 µM | > 25 µM | > 25 µM | > 25000 nM | > 25 µM | > 25 µM | > 25 µM | > 25 µM | > 25 µM | > 25 µM | –
CC(=O)[O][Hg][c]1c(N)c(C)cc(C)c1F | – | – | 4.03 µM | 7.12 µM | 44.5 µM | 0.344 µM | – | – | 2.88 µM | 3.21 µM | – | 0.749 µM | 1220 nM | 16.2 µM | 0.167 µM | – | – | 1.48 µM | 1.44 µM | –
N#CC(C#N)=c1ccc(=C2NCC3CCCN23)cc1 (stereo unspecified) | – | > 100 µM | > 100 µM | > 100 µM | > 100 µM | > 100 µM | > 100 µM | > 100 µM | > 100 µM | > 100 µM | – | – | – | – | – | – | – | – | – | –
COc1ccc(C2=CSc3cc(Cl)c(C)cc3S(=O)(=O)N2C(C)=O)cc1 | > 100 µM | – | > 100 µM | > 100 µM | 60 µM | > 100 µM | – | > 100 µM | 48.5 µM | > 100 µM | – | 27.8 µM | 2130 nM | 15.2 µM | 53.9 µM | – | 33.8 µM | 19.9 µM | 38.7 µM | 38.2 µM
COc1ccccc1NC(=O)CC(=O)n1nc(C)c(N=Nc2ccccc2C(=O)O)c1C | 83.5 µM | > 100 µM | > 100 µM | > 100 µM | – | > 100 µM | > 100 µM | > 100 µM | > 100 µM | > 100 µM | – | – | – | – | – | – | – | – | – | –
CC(=O)N1[C@H](C(=O)O)CS[C@H]1c1ccncc1 | > 100 µM | > 100 µM | > 100 µM | > 100 µM | > 100 µM | – | > 100 µM | > 100 µM | > 100 µM | > 100 µM | – | – | – | – | – | – | – | – | – | –
O=c1cc(-c2cccc(O)c2)[nH]c2cc3c(cc12)OCO3 | – | > 100 µM | > 100 µM | > 100 µM | 23.8 µM | 0.951 µM | > 100 µM | > 29.7 µM | 5.01 µM | > 100 µM | – | – | – | – | – | – | – | – | – | –
CCOC(=O)C(Sc1ccccc1)c1c(OC)cc(=O)oc1/C=[N+](/[O-])c1ccc(N(C)C)cc1 (stereo unspecified) | > 100 µM | 31.4 µM | 23.8 µM | 37.9 µM | – | – | 51.6 µM | 44.2 µM | 44.9 µM | 32.2 µM | – | – | – | – | – | – | – | – | – | –
CC[C@@]12CCCN3CC[C@]4(c5cccc(OC)c5N(C(C)=O)[C@@H]4CC1)[C@H]32 | > 100 µM | 44 µM | – | 61.3 µM | > 100 µM | > 100 µM | > 100 µM | > 100 µM | > 100 µM | > 100 µM | – | – | – | – | – | – | – | – | – | –
COC(=O)[C@@H](C)C[C@H](Cc1ccc(F)cc1)NC(=O)c1csc([C@@H](C[C@H](C(C)C)N(C)C(=O)[C@@H](NC(=O)[C@H]2CCCCN2C)C(C)C)OC(C)=O)n1 | > 16.7 µM | > 16.7 µM | > 16.7 µM | > 16.7 µM | – | 0.00082 µM | > 16.7 µM | > 16.7 µM | – | > 16.7 µM | – | – | 2.45 nM and 8.76 nM | – | 0.0002 µM | – | 0.00256 µM and 0.0116 µM | – | – | –
C/C(CCn1[nH]c(=O)ccc1=O)=N\O | > 100 µM | > 100 µM | > 100 µM | > 100 µM | > 100 µM | – | > 100 µM | > 100 µM | > 100 µM | > 100 µM | – | – | – | – | – | – | – | – | – | –
COC(=O)[C@@]12C3=NO[C@]1(C(=O)OC)C(O[Si](C)(C)C(C)(C)C)[C@H]1OC(C)(C)O[C@H]1[C@@H]2C(OCc1ccccc1)CC3 (stereo partly specified) | > 100 µM | > 100 µM | > 100 µM | > 100 µM | > 100 µM | – | 97.2 µM | > 100 µM | > 100 µM | > 100 µM | – | – | – | – | – | – | – | – | – | –
